Laboratory results reported in PMC7429848, “XJB-5-131 inhibited ferroptosis in tubular epithelial cells after ischemia−reperfusion injury” (Cell Death & Disease, 2020).

Tests used:
[1] = In vivo-based pharmacokinetic model, LC-MS/MS of plasma and tissue homogenates; design: species or system mice; details: for AUC0–6 h / AUC0–∞ / MRT0-6h / MRT0–∞ / t1/2 / tmax / Cmax: 3 mg/kg i.v. bolus
Method: (§1) The mice were sacrificed at 0.25, 0.5, 1, 2, 4 and 6 h after i.v. bolus administration of XJB-5-131. […] The concentration of XJB-5-131 in the liver was not obtained. The half-life (t1/2) was approximately 2 h. The area under the concentration–time curve (AUC0−6 h) of plasma was 322.7 µg·h/ml. The AUC0−6 h in the kidney was approximately […] compared with that of the AUC0−6 h in the brain (234.7 µg·h/g versus 4.1 µg·h/g). […] Moreover, the concentration in the kidney was almost close to the plasma concentration and lasted much longer, which predicted the therapeutic value of XJB-5-131 in kidney diseases. Next, we intravenously injected 3 mg/kg BODIPY-FL-XJB-5-131 into mice to explore the distribution of XJB-5-131 in the kidney, and whole-body fluorescence was analyzed at 0 and 30 min after injection.
Mice were injected with 3 mg/kg XJB-5-131 and were sacrificed at 0.25, 0.5, 1, 2, 4 and 6 h after injection. Plasma, kidney, liver and brain were collected to assess the XJB-5-131 concentration by LC-MS/MS. For plasma samples, an aliquot of 8 µL was protein precipitated with 160 µL IS, and the mixture was vortex-mixed and centrifuged at 12,000 × g for 15 min at 4 °C. Seventy microliters of supernatant was transferred to a 96-well plate and centrifuged for 5 min at 3220 × g and 4 °C, and then 6 µL of supernatant was directly injected for LC-MS/MS analysis. For tissue samples, tissue homogenates (kidney, brain and liver) were prepared by homogenizing tissue with threefold volume of homogenization solution (MeOH/15 mM PBS = 1:2). An aliquot of 20 µL was protein precipitated with 400 µL IS, and the mixture was vortex-mixed and centrifuged at 12,000 rpm for 15 min at 4 °C. Seventy microliters of supernatant was transferred to a 96-well plate and centrifuged for 5 min at 3220 × g and 4 °C, and then 6 µL of supernatant was directly injected for LC-MS/MS analysis.

renal I/R injury [2] = assay: Renal I/R model: kidney injury and TEC repair (gross appearance, PAS, KIM-1, Ki67, Sox9); type: in vivo; details: mice
Method: (§2) After a minimum of 7 days of acclimation, the mice were anesthetized with a 1% sodium pentobarbital solution (6 mL/kg) by intraperitoneal injection and then placed in a prone position to maintain their body temperature at 36.8–37.2 °C during surgery. After a unilateral dorsal incision to expose the kidneys, the renal artery was occluded using a microvascular clamp (RoBoz Surgical Instrument Co, Gaithersburg, MD, USA) for 30 min. After that, the clamps were removed, and the animals were allowed to recover with free access to food and water.
(§3) To study the effects of XJB-5-131 on I/R injury, the mice were randomly allocated into the Vehi group and XJB group. The mice were injected intraperitoneally (i.p.) with XJB-5-131 (10 mg/kg) or the respective control 30 min prior to ischemia and for 3 consecutive days after surgery.
Paraffin-embedded renal sections (4 μm) were subjected to PAS staining to detect morphological changes in the cortex and medulla, and were scored in a blinded fashion using a semiquantitative design as previously reported.
(§4) Paraffin-embedded renal sections (4 μm) were deparaffinized in xylene, rehydrated in graded alcohol and blocked with 10% goat serum for 30 min. Mouse monoclonal anti-GSDMD (1:50, Santa), mouse monoclonal anti-4-HNE (1:100, R&D), rabbit polyclonal anti-MLKL, goat polyclonal anti-KIM-1 (1:800, R&D), rabbit polyclonal anti-Ki67 (1:100, Abcam), rabbit polyclonal anti-ACSL4 (1:200, Abcam), rabbit polyclonal anti-CD3 (1:100, Dako), rabbit polyclonal anti-ly6G (1:100, Abcam), rat polyclonal anti-F4/80 (1:50, Abcam), and rabbit polyclonal anti-Sox9 (1:100, Abcam) primary antibodies were incubated at 4 °C overnight and subsequently visualized with HRP-conjugated secondary antibody for IHC and fluorescently labeled secondary antibodies for IF. Staining was carefully quantified in each slide by capturing 15 randomly chosen fields in a blind manner, and the data were analyzed using Image Pro Plus software (Media Cybernetics, USA).

renal I/R injury [3] = assay: Renal I/R model: intrarenal inflammatory cell infiltration and proinflammatory cytokine mRNA; type: in vivo; details: mice, unilateral I/R, 10 mg/kg i.p., vs I/R group
Method: as §2, §3, §4
Total RNA was extracted from kidney tissue using TRIzol reagent (Takara, Japan). Real-time PCR was carried out using a LightCycler 480 system (Roche, Pleasanton, CA, USA). Relative mRNA for RANTES, MCP-1, IL-6 and GAPDH was quantified in triplicate by SYBR Green RT-PCR.

ferroptosis in TECs = assay: Renal I/R model: ferroptosis readouts (mitochondrial morphology, GSH-Px, MDA, 4-HNE, GPX4, ACSL4); type: in vivo; details: mice, unilateral I/R, 10 mg/kg i.p.
Method: as §2, §3
The renal cortices were cut into small pieces (1 mm^3) and fixed with 2.5% glutaraldehyde. Then the samples were dehydrated and embedded. Ultra-thin sections were stained and observed with a transmission electron microscope (Tecnai G^2 20 TWIN, FEI, USA).
as §4
The levels of GSH-Px in kidneys were determined using GSH-Px assay kit, respectively (Beyotime China) in line with the manufacturer’s instructions.
Quantification of MDA levels in kidney tissue after I/R or sham operation was performed by using an MDA assay kit (Beyotime).
(§5) Renal tissues were lysed in RIPA lysis buffer containing protease inhibitor. Equal amounts of proteins (50 μg) were loaded and separated by 10% SDS-PAGE. The proteins were transferred onto polyvinylidene fluoride membranes (Millipore, USA). The membranes were blocked with 5% skimmed milk in Tris Buffered saline Tween (TBST) for 1 h at room temperature and were then incubated with appropriate primary antibodies against GPX4 (1:10000, Abcam), ACSL4 (1:10000, Abcam, UK), MLKL (1:1000, Abgent), p-MLKL (1:1000, Abcam), RIPK3 (1:1000, ABclonal), p-RIPK3 (1:1000, Abcam), GSDMD (1:1000, Santa) and GAPDH (1:5000, ABclonal) at 4 °C overnight. The blots were washed with TBST for 5 min and incubated with HRP-conjugated secondary antibodies (1:5000; ABclonal) for 1 h. After washing with TBST, the blots were visualized by the enhanced chemiluminescence method (ECL, Bio-Rad). The relative intensity of the target band was normalized to the corresponding loading control intensity and quantified by using ImageJ (NIH, USA).

RIPK3, MLKL, GSDMD = assay: Renal I/R model: necroptosis and pyroptosis markers by western blot; type: in vivo; details: mice, unilateral I/R, with or without XJB-5-131
Method: as §2, §3, §5

[4] = Whole-body and organ fluorescence imaging and kidney frozen sections after BODIPY-FL-XJB-5-131 injection; type: in vivo; details: mice, BODIPY-FL-labeled XJB-5-131 i.v.
Method: as §1
Fig. 5 Pharmacokinetics and distribution analysis of XJB-5-131 in vivo and in vitro. a The structure of XJB-5-131. b The tissue concentrations of XJB-5-131 in mice. Mice were injected with XJB-5-131 and sacrificed after 0.25, 0.5, 1, 2, 4 and 6 h. Plasma, kidney, liver and brain were collected for in vivo-based pharmacokinetic assays by LC-MS/MS. […] Whole-body fluorescence imaging was performed at 0 and 30 min, and the fluorescence intensity of various organs (heart, kidney, liver and brain) was measured after 30 min. […]

[5] = design: method as in PMID 26415224; details: cited from earlier work
HT-1080 cells = system: HT-1080 cells; design: method as in PMID 27725964; details: cited from earlier work
[6] = stated without reference; cited from earlier work
[7] = unilateral I/R, 10 mg/kg i.p., day 3, vs I/R group

For `CC(C)C[C@@H](/C=C/[C@H](Cc1ccccc1)C(=O)N1CCC[C@H]1C(=O)N[C@H](C(=O)N[C@@H](CCCNC(=O)OCc1ccccc1)C(=O)NC1CC(C)(C)N([O])C(C)(C)C1)C(C)C)NC(=O)OC(C)(C)C` [XJB-5-131], the “AUC0–6 h” value ([1]; mice, brain) was 4052 ng·h/g, the “AUC0–∞” value ([1]; mice, brain) was 4859 ng·h/g and the MRT0-6h ([1]; mice, brain) was 3.14 h. For the same compound, the “MRT0–∞” value ([1]; mice, brain) was 1.98 h, the t1/2 ([1]; mice, brain) was 2.07 h and the tmax ([1]; mice, brain) was 0.25 h. For the same compound, the Cmax ([1]; mice, brain and plasma) was 2353 ng/g, the “AUC0–6 h” value ([1]; mice, kidney) was 234,683 ng·h/g and the “AUC0–∞” value ([1]; mice, kidney) was 255,150 ng·h/g. The Cmax ([1]; mice, kidney) was 261,067 ng/g, the MRT0-6h ([1]; mice, kidney) was 2.05 h and the “MRT0–∞” value ([1]; mice, kidney) was 1.42 h. The t1/2 ([1]; mice, kidney) was 2.23 h, the tmax ([1]; mice, kidney) was 0.25 h and the “AUC0–6 h” value ([1]; mice, plasma) was 322,745 ng·h/mL. For the same compound, the “AUC0–∞” value ([1]; mice, plasma) was 364,783 ng·h/mL, the Cmax ([1]; mice, plasma) was 186,667 ng/mL and the MRT0-6h ([1]; mice, plasma) was 2.65 h. The t1/2 ([1]; mice, plasma) was 1.77 h, the tmax ([1]; mice, plasma) was 0.25 h and the “half-life (t1/2)” value ([1]; mice, i.v.) was “approximately 2 h”. The plasma-tissue drug transfer ([1]; mice, i.v.) was “fast”, the plasma stability ([1]; mice, i.v., in vivo PK) was “superior plasma stability” and the “AUC0−6 h” value ([1]; mice, i.v., kidney) was 234.7 µg·h/g. The “calculated maximal concentration (Cmax)” value ([1]; mice, i.v., kidney) was 261.1 µg/g, the “AUC0−6 h” value ([1]; mice, i.v., kidney and brain) was 4.1 µg·h/g and the “AUC0−6 h” value ([1]; mice, i.v., plasma) was 322.7 µg·h/mL. The “calculated maximal concentration (Cmax)” value ([1]; mice, i.v., plasma) was 186.7 µg/mL, the “time of Cmax after vein injection” value ([1]; mice, i.v., plasma, kidney and brain) was 15 min and the “stability in liver homogenate” value ([1]; mouse liver homogenate, not detected by LC-MS/MS) was “unstable”. The “benefit at 10mg/kg versus 2.5mg/kg or 20mg/kg” value (renal I/R injury [2]; I/R, day 3, PAS staining) was “better beneficial than other doses”, the “kidney injuries and casts (PAS staining)” value (renal I/R injury [2]; I/R, day 3, vs I/R+Vehicle) was “ameliorated” and the “KIM-1 expression (immunofluorescent staining)” value (renal I/R injury [2]; [7]) was “decreased”. The “Sox9 in TECs” value (renal I/R injury [2]; [7]) was “dramatically activated”, the “congestion area at the junction of cortex and medulla” value (renal I/R injury [2]; [7]) was “reduced” and the “loss of tubules (PAS tubular damage)” value (renal I/R injury [2]; [7]) was “alleviated”. The “number of Ki67-positive nuclei in TECs” value (renal I/R injury [2]; [7]) was “much higher number”, the “ratio of injured kidney weight to body weight” value (renal I/R injury [2]; [7]) was “decreased” and the “IL-6 mRNA expression in kidney” value (renal I/R injury [3]) was “suppressed”. The “MCP-1 mRNA expression in kidney” value (renal I/R injury [3]) was “suppressed”, the “RANTES mRNA expression in kidney” value (renal I/R injury [3]) was “suppressed” and the “infiltration of inflammatory cells in the kidney (ly6G, CD3, F4/80 positive cells)” value (renal I/R injury [3]) was “reduced”. For the same compound, the 4-HNE staining (ferroptosis in TECs) was “less accumulation of lipid peroxidation”, the “I/R-induced increase in ACSL4 expression (western blot)” value (ferroptosis in TECs) was “inhibited” and the “renal GPX4 expression (western blot)” value (ferroptosis in TECs) was “significantly improved”. The “resistance of mitochondria in TECs to I/R injury (electron microscopy)” value (ferroptosis in TECs) was “increased resistance”, the “GSH-Px level in kidney” value (ferroptosis in TECs; day 3) was “increased levels” and the “MDA level in kidney” value (ferroptosis in TECs; day 3) was “decreased levels”. The “cleavage of GSDMD (GSDMD-N)” value (RIPK3, MLKL, GSDMD) was “no statistically significant difference”, the “expression of phosphorylated MLKL” value (RIPK3, MLKL, GSDMD) was “no difference” and the “expression of phosphorylated RIPK3” value (RIPK3, MLKL, GSDMD) was “no difference”. The “cell type distribution in the kidney (fluorescence microscopy of frozen sections)” value [4] was “majority of XJB-5-131-positive cells were kidney TECs”, the “conversion into XJB-hydroxylamine in situ” value [5] was “easily converted into XJB-hydroxylamine” and the effect on ferroptosis (HT-1080 cells) was “anti-ferroptotic effects”.

For `CCOC(=O)c1ccc(NC2CCCCC2)c(N)c1` [Fer-1, ferrostatin-1], the stability in plasma [6] is given as “poor”.
